How the values were obtained:
Test in all cases: biochemical
Assay type in all cases: binding
PIK3R1(SH2dom.N-term.) = target: T1, PIK3R1(SH2dom.N-term.) (Homo sapiens, UniProt P27986); conditions: primary screen, 10 μM; read-out: percent of DMSO vehicle control
T1 construct: SH2dom.N-term. denotes SH2 domain closest to N-terminus of protein; made in house; host or cells: HEK293 (transient transfection, unpurified extract)

DAPP1 = target: T2, DAPP1 (Homo sapiens, UniProt Q9UN19); conditions: primary screen, 10 μM; read-out: percent of DMSO vehicle control
T2 construct: the DNA-tagged SH2 domain concentrations used in this study were <0.1 nM; made in house; host or cells: HEK293 (transient transfection; unpurified extract)
T2 sequence (Q9UN19 35-129 limits assumed): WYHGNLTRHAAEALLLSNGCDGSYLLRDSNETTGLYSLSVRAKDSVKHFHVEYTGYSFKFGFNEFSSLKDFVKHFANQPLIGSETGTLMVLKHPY

GRAP = target: T3, GRAP (Homo sapiens, UniProt Q13588); conditions: primary screen, 10 μM; read-out: percent of DMSO vehicle control
T3 construct: the DNA-tagged SH2 domain concentrations used in this study were <0.1 nM; made in house; host or cells: HEK293 (transient transfection; unpurified extract)

SH2B (SH2B1) = target: T4, SH2B (SH2B1) (Homo sapiens, UniProt Q9NRF2); conditions: primary screen, 10 μM; read-out: percent of DMSO vehicle control
T4 construct: made in house; host or cells: HEK293 (transient transfection), unpurified extract

YES = target: T5, YES (Homo sapiens, UniProt P07947); conditions: primary screen, 10 μM; read-out: percent of DMSO vehicle control
T5 construct: the DNA-tagged SH2 domain concentrations used in this study were <0.1 nM; made in house; host or cells: HEK293 (transient transfection; unpurified cell extract)

SOCS3 = target: T6, SOCS3 (Homo sapiens, UniProt O14543); conditions: for remaining activity at 10 µM: primary screen, read-out: percent of DMSO vehicle control
T6 construct: made in house; host or cells: HEK293 (transient transfection), unpurified extract
T6 sequence (O14543 1-225): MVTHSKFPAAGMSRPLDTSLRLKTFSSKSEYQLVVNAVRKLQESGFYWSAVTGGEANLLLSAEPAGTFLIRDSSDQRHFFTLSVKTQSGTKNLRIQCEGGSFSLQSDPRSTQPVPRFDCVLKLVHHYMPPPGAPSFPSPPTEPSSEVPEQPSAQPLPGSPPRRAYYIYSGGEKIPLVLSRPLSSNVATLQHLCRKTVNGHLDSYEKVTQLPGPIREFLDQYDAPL

SH2D1B = target: T7, SH2D1B (Homo sapiens, UniProt O14796); conditions: primary screen, 10 μM; read-out: percent of DMSO vehicle control
T7 construct: made in house; host or cells: HEK293 (transient transfection), unpurified extract
T7 sequence (O14796 1-132): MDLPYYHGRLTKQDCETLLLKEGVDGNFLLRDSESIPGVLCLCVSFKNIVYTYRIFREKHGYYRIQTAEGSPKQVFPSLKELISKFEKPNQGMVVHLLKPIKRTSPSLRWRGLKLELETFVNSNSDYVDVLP

TNS4 = target: T8, TNS4 (Homo sapiens, UniProt Q8IZW8); conditions: for KD: dose-response; for remaining activity at 10 µM: primary screen, read-out: percent of DMSO vehicle control
T8 construct: made in house; host or cells: HEK293 (transient transfection), unpurified extract
T8 sequence (Q8IZW8 19-715): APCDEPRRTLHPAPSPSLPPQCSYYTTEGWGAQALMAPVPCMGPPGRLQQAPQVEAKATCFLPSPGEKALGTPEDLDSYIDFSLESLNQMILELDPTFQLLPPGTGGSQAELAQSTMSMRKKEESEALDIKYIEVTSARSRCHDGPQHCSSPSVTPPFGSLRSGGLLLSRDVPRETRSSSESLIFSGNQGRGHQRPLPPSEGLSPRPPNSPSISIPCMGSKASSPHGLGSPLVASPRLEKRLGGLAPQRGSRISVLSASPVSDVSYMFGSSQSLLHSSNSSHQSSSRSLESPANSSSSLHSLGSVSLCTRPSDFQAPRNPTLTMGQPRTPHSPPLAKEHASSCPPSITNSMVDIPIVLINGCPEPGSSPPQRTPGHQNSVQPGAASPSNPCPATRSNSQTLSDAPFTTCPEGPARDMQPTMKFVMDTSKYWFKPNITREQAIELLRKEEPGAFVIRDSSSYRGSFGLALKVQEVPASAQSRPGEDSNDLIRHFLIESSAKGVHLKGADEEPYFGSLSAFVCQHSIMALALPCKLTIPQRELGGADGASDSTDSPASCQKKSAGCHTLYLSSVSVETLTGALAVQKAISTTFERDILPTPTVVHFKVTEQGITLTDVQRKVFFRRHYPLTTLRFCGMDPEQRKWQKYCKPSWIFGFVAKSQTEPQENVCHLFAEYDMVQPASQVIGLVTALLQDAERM

GRB7 = target: T9, GRB7 (Homo sapiens, UniProt Q14451); conditions: primary screen, 10 μM; read-out: percent of DMSO vehicle control
T9 construct: the DNA-tagged SH2 domain concentrations used in this study were <0.1 nM; made in house; host or cells: HEK293 (transient transfection; unpurified extract)

SOCS1 = target: T10, SOCS1 (Homo sapiens, UniProt O15524); conditions: primary screen, 10 μM; read-out: percent of DMSO vehicle control
T10 construct: made in house; host or cells: HEK293 (transient transfection), unpurified extract
T10 sequence (O15524 1-211): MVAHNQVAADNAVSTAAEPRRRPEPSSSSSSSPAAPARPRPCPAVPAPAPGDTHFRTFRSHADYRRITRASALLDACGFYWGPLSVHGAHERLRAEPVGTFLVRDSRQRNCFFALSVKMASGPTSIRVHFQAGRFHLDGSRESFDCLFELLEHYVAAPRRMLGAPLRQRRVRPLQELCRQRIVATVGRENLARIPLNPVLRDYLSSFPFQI

STAT1 = target: T11, STAT1 (Homo sapiens, UniProt P42224); conditions: for Kd: dose-response, read-out: KD; for remaining activity at 10 µM: primary screen, read-out: percent of DMSO vehicle control
T11 construct: made in house; host or cells: HEK293 (transient transfection), unpurified extract
T11 sequence (P42224 1-750): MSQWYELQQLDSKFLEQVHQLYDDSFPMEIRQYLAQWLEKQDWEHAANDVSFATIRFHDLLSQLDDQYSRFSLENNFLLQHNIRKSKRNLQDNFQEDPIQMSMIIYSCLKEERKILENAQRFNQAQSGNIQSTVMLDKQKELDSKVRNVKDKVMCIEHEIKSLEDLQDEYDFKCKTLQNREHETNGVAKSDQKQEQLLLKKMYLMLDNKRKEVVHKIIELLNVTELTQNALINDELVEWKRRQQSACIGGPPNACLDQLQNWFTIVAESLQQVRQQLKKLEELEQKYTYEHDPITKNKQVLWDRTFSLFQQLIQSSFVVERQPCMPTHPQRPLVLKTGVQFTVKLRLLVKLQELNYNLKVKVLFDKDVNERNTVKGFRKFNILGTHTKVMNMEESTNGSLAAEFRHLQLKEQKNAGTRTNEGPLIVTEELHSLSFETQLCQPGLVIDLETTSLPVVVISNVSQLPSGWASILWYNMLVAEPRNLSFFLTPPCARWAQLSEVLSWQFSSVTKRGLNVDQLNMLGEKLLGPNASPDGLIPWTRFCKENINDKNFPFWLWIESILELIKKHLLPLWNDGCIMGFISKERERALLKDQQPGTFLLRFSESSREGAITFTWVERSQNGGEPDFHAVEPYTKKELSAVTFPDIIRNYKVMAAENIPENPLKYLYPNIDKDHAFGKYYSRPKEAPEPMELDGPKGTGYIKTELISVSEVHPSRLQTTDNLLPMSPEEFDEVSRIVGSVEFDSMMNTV

CRKL = target: T12, CRKL (Homo sapiens, UniProt P46109); conditions: primary screen, 10 μM; read-out: percent of DMSO vehicle control
T12 construct: the DNA-tagged SH2 domain concentrations used in this study were <0.1 nM; made in house; host or cells: HEK293 (transient transfection; unpurified extract)
T12 sequence (P46109 14-102 limits assumed): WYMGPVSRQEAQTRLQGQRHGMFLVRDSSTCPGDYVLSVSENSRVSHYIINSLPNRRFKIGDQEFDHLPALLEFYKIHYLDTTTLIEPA

T3 sequence (Q13588 60-154 limits assumed): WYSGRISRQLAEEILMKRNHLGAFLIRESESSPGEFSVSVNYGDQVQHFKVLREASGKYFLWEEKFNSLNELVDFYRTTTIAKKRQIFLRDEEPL
T9 sequence (Q14451 431-527 limits assumed): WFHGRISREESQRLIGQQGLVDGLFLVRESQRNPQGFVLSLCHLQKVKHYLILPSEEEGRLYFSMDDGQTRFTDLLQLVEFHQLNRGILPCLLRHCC
T1 sequence (P27986 333-428 limits assumed): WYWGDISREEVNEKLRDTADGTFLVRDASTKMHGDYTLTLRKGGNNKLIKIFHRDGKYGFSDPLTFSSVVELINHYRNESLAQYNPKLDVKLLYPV
T5 sequence (P07947 158-255 limits assumed): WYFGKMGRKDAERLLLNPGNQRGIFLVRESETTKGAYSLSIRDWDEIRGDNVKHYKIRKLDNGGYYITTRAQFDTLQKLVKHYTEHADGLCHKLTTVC

SMILES: CC(C)(C)[C@H](NC(=O)/C=C/c1ccc(OP(=O)(O)O)cc1)C(=O)N1CCC[C@H]1C(=O)N(c1ccccc1)c1ccc(I)cc1 [STAT6-IN-3]
- remaining activity at 10 µM (PIK3R1(SH2dom.N-term.)): 85.6 ± 12.9%
- remaining activity at 10 µM (DAPP1): 58.9 ± 43.2%
- remaining activity at 10 µM (GRAP): 73.5 ± 23.6%
- remaining activity at 10 µM (SH2B (SH2B1)): 78.1 ± 4.8%
- remaining activity at 10 µM (YES): 37.7 ± 27.8%
- KD (SOCS3; dose-response): No Hit
- remaining activity at 10 µM (SOCS3): 52.6 ± 50.6%
- remaining activity at 10 µM (SH2D1B): 46 ± 22.7%
- KD (TNS4): No Hit
- remaining activity at 10 µM (TNS4): 21.6 ± 25.3%
- remaining activity at 10 µM (GRB7): 81.2 ± 4.6%
- remaining activity at 10 µM (SOCS1): 95.9 ± 35.6%
- Kd (STAT1): 0.67 ± 0.33 µM
- remaining activity at 10 µM (STAT1): 0.7 ± 0.6%
- remaining activity at 10 µM (CRKL): 102 ± 19.9%

SMILES: O=C(COc1ccc2cc(C(=O)Nc3ccccc3)ccc2c1)NCc1ccc(OP(=O)(O)O)c(OP(=O)(O)O)c1 [Stafib-1]
- remaining activity at 10 µM (PIK3R1(SH2dom.N-term.)): 88.8 ± 24.3%
- remaining activity at 10 µM (DAPP1): 100%
- remaining activity at 10 µM (GRAP): 76.2 ± 27%
- remaining activity at 10 µM (SH2B (SH2B1)): 92.7 ± 14.3%
- remaining activity at 10 µM (YES): 63.1 ± 24.3%
- remaining activity at 10 µM (SOCS3): 72.7 ± 29%
- remaining activity at 10 µM (SH2D1B): 62.9 ± 9.5%
- KD (TNS4): No Hit
- remaining activity at 10 µM (TNS4): 32.7%
- remaining activity at 10 µM (GRB7): 57.9 ± 22.2%
- remaining activity at 10 µM (SOCS1): 156%
- Kd (STAT1): 37 µM
- remaining activity at 10 µM (STAT1): 48.2 ± 5.4%
- remaining activity at 10 µM (CRKL): 120%

— paper PMC12951562, “SH2scan: Mapping SH2 Domain-Ligand Binding Selectivity for Inhibitors and Degraders” (Journal of Medicinal Chemistry, 2026)
